The source made the active and inactive calls. No cut-off for these calls is given here.
Tests used:
[1] = Stability of the compound in cell culture medium containing 10% fetal bovine serum at 50 uM incubated for 12 hrs by HPLC analysis; format: physicochemical, cell-free; details: cattle
[2] = Stability of the compound in cell culture medium containing 10% fetal bovine serum assessed as drug degradation at 50 uM incubated for 12 hrs by HPLC analysis; format: physicochemical, cell-free; details: cattle, read-out: Drug degradation
A549 = assay: Reduction in intracellular GSH level in human A549 cells by measuring decrease in fluorescence signal at 10 uM incubated for 10 mins in presence of GSH scavenger NEM by fluorescence microscopic analysis; format: functional, cell-based

Row | Stability [1] | degraded at 12 h, 50 µM [2] [%] | Compound | Activity (A549)
1 | Unstable | > 60 | Cc1ncsc1-c1ccc(CNC(=O)[C@@H]2C[C@@H](O)CN2C(=O)[C@@H](NC(=O)CN2CCN(c3cc(-c4ccccc4OS(=O)(=O)c4ccc([N+](=O)[O-])c(F)c4)nnc3N)CC2)C(C)(C)C)cc1 | –
2 | – | – | CCN(CCN1C(=O)C=CC1=O)c1ccc2c(C)cc(=O)oc2c1 | Active

— ChEMBL document CHEMBL6127029, “Glutathione-dependent degradation of SMARCA2/4 for targeted lung cancer therapy with improved selectivity” (Eur J Med Chem, 2024)
